In patent US12129275B2, “Neuroactive steroids, compositions, and uses thereof” (SAGE THERAPEUTICS, INC., priority 2011, dated 2024):
“And” between values parts separate entries of the source, which are not always exact repeats. Equal values may be shown once.

Experiments:
[1] = biological target: T1, NMDA receptor (GRIN1/GRIN2A subunits) (Homo sapiens, UniProt Q05586+Q12879); assay: NMDA potentiation, whole-cell patch-clamp in HEK cells; assay type: cell-based; settings: currents evoked by 30 μM NMDA and 5.0 μM Glycine, holding potential −80 mV; for NMDA 1a2A (%) Potentiation 0.1 uM: compound 0.1 uM; for NMDA 1a2A (%) Potentiation 1 uM: compound 1 uM
T1 construct: expressed in transfected cells
T1 sequence (Q12879 23-1464, other chains not shown): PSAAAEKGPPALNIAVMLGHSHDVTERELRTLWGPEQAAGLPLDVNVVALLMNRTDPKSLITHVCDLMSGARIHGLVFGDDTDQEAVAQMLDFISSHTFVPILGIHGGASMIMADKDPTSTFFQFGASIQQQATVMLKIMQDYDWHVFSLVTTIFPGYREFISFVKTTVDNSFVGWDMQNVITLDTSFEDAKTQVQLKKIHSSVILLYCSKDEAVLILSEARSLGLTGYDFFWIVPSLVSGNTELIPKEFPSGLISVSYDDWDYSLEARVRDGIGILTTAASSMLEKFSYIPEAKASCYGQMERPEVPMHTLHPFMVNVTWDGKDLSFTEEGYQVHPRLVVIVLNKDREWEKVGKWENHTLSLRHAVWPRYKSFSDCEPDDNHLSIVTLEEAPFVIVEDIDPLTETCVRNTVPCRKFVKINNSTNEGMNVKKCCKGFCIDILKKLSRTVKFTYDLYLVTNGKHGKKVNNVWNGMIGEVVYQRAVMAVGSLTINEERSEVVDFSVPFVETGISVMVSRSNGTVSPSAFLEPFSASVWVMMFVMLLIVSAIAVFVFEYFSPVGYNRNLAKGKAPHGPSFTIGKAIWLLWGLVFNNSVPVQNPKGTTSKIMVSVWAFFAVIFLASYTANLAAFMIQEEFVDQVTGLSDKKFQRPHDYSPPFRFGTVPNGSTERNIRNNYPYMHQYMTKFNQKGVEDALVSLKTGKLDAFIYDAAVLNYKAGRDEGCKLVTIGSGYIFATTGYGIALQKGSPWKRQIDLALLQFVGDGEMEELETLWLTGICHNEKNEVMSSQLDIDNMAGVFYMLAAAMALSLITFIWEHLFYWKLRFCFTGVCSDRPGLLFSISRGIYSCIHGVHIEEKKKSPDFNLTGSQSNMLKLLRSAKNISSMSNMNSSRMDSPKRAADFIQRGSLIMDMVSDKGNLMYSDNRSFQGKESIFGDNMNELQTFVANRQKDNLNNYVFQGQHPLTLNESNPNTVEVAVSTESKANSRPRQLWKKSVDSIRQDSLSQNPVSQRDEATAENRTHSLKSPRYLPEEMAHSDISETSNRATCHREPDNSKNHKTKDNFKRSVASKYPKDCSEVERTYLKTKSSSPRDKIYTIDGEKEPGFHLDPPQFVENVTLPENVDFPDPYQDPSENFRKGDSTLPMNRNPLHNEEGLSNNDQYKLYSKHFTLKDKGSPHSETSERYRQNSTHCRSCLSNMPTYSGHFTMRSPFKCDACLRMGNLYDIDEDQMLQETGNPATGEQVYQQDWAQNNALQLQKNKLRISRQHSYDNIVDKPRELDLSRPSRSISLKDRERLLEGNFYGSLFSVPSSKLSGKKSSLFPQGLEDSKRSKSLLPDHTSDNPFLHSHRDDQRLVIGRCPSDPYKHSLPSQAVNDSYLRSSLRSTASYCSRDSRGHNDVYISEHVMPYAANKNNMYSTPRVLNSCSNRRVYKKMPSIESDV

NMDA (NR1a/NR2A) = NMDA (NR1a/NR2A) (Homo sapiens, UniProt Q05586+Q12879); settings: reported, Madau et al. / Connick et al. 2009; cited from earlier work
NMDA (NR1a/NR2A), sequence (Q12879 23-1464, other chains not shown): as above

NMDA receptors = settings: background statement; cited from earlier work

Row | Molecule | NMDA 1a2A (%) Potentiation 0.1 uM [1] | NMDA 1a2A (%) Potentiation 1 uM [1] | modulation of NMDA (NR1a/NR2A) (NMDA (NR1a/NR2A)) | selectivity NMDA over GABAA (NMDA (NR1a/NR2A)) | modulation of NMDA receptors (NMDA receptors)
1 | CC(C)(O)COC[C@H]1CCC2C3CC=C4C[C@@](C)(O)CC[C@]4(C)C3CC[C@@]21C (stereo partly shown) | −5% | −14% |  |  | 
2 | C[C@H](CCC(C)(C)O)[C@H]1CC[C@H]2[C@@H]3CC=C4C[C@@](C)(O)CC[C@]4(C)[C@H]3CC[C@]12C | 128% | 348% |  |  | 
3 | C[C@@H]([C@H]1CC[C@H]2[C@@H]3CC=C4C[C@@H](O)CC[C@]4(C)[C@H]3CC[C@]12C)C(C)(C)O | 4% | 24% |  |  | 
4 | C[C@H](CCC(C)(C)O)[C@H]1CC[C@H]2[C@@H]3CC[C@H]4C[C@](O)(C(F)(F)F)CC[C@@H]4[C@H]3CC[C@]12C | 14% | 85% |  |  | 
5 | CC(C)(O)CCO[C@H]1CCC2C3CC[C@H]4C[C@@](C)(O)CC[C@]4(C)C3CC[C@@]21C (stereo partly shown) | 6% | 27% |  |  | 
6 | C[C@H](CCC(C)(C)O)[C@H]1CC[C@H]2[C@@H]3CC[C@H]4C[C@](C)(O)CC[C@]4(C)[C@H]3CC[C@]12C | 19% | 30% |  |  | 
7 | C[C@H](CCC(C)(C)O)[C@H]1CC[C@H]2[C@@H]3CC[C@H]4C[C@@H](O)CC[C@@H]4[C@H]3CC[C@]12C | 19% | 44% |  |  | 
8 | C[C@H](CCC(C)(C)O)[C@H]1CC[C@H]2[C@@H]3CC=C4C[C@](C)(O)CC[C@]4(C)[C@H]3CC[C@]12C | 13% | 60% |  |  | 
9 | CC(C)(O)CCC[C@H]1CCC2C3CC[C@H]4C[C@@](C)(O)CC[C@]4(C)C3CC[C@@]21C (stereo partly shown) | 17% | 105% |  |  | 
10 | CC(O)CC[C@@H](C)[C@H]1CC[C@H]2[C@@H]3CC=C4C[C@@H](O)CC[C@]4(C)[C@H]3CC[C@]12C (stereo partly shown) | 42% | 98% |  |  | 
11 | C[C@H](CC(F)(F)CO)[C@H]1CC[C@H]2[C@@H]3CC=C4C[C@@H](O)CC[C@]4(C)[C@H]3CC[C@]12C | 31% | 95% |  |  | 
12 | C[C@H](CCC(C)(C)O)[C@H]1CC[C@H]2[C@@H]3CC[C@@H]4C[C@@](O)(C(F)(F)F)CC[C@]4(C)[C@H]3CC[C@]12C | 9% | 18% |  |  | 
13 | C[C@H](CCC(C)(C)O)[C@H]1CC[C@H]2[C@@H]3CC=C4C[C@@H](O)CC[C@]4(C)[C@H]3CC[C@]12C [Org-1] |  |  | positive modulator | selectively modulate NMDA over GABAA | 
14 | C[C@H](CCC(C)(C)O)[C@H]1CC[C@H]2[C@@H]3CC=C4C[C@@H](O)CC[C@@H]4[C@H]3CC[C@]12C | 28% | 66% |  |  | 
15 | C[C@H](CCC(C)(C)O)[C@H]1CC[C@H]2[C@@H]3CC[C@H]4C[C@@](C)(O)CC[C@@H]4[C@H]3CC[C@]12C | 25% | 114% |  |  | 
16 | C[C@H](CCC(C)(C)O)[C@H]1CC[C@H]2[C@@H]3CC[C@H]4C[C@](O)(C(F)(F)F)CC[C@]4(C)[C@H]3CC[C@]12C | 59% | 172% |  |  | 

Row | Molecule | NMDA 1a2A (%) Potentiation 0.1 uM [1] | NMDA 1a2A (%) Potentiation 1 uM [1] | modulation of NMDA (NR1a/NR2A) (NMDA (NR1a/NR2A)) | selectivity NMDA over GABAA (NMDA (NR1a/NR2A)) | modulation of NMDA receptors (NMDA receptors)
17 | COC[C@@]1(O)CC[C@@]2(C)[C@@H](CC[C@@H]3[C@@H]2CC[C@]2(C)[C@@H]([C@H](C)CCC(C)(C)O)CC[C@@H]32)C1 | 8% | 25% |  |  | 
18 | CC(C)[C@H](O)CC[C@@H](C)[C@H]1CC[C@H]2[C@@H]3CC=C4C[C@@H](O)CC[C@]4(C)[C@H]3CC[C@]12C | 82% | 137% |  |  | 
19 | C[C@H](CCC(C)(C)N)[C@H]1CC[C@H]2[C@@H]3CC=C4C[C@@H](O)CC[C@]4(C)[C@H]3CC[C@]12C | −8% | −19% |  |  | 
20 | C[C@H](CCC1(O)CC1)[C@H]1CC[C@H]2[C@@H]3CC=C4C[C@@H](O)CC[C@]4(C)[C@H]3CC[C@]12C | 74% | 171% |  |  | 
21 | C[C@H](CCCO)[C@H]1CC[C@H]2[C@@H]3CC=C4C[C@@H](O)CC[C@]4(C)[C@H]3CC[C@]12C | 39% | 127% |  |  | 
22 | CC(CCC(C)(C)O)[C@H]1CC[C@H]2[C@@H]3CC=C4C[C@@H](O)CC[C@]4(C)[C@H]3CC[C@]12C (stereo partly shown) | 55% | 197% |  |  | 
23 | pregnenolone sulfate [PS] |  |  |  |  | positively modulated
24 | COC[C@]1(O)CC[C@@]2(C)[C@@H](CC[C@@H]3[C@@H]2CC[C@]2(C)[C@@H]([C@H](C)CCC(C)(C)O)CC[C@@H]32)C1 | 14% | 110% |  |  | 
25 | CC[C@@]1(O)CC[C@@]2(C)C(=CC[C@H]3[C@@H]4CC[C@H]([C@H](C)CCC(C)(C)O)[C@@]4(C)CC[C@@H]32)C1 | 23% | 139% |  |  | 
26 | C[C@H](CC(C)(C)O)[C@H]1CC[C@H]2[C@@H]3CC=C4C[C@@H](O)CC[C@]4(C)[C@H]3CC[C@]12C | −5% | 27% |  |  | 
27 | C[C@H](CCC(C)(C)O)[C@H]1CC[C@H]2[C@@H]3CC[C@H]4C[C@@H](O)CC[C@]4(C)[C@H]3CC[C@]12C | 18% | 85% |  |  | 
28 | C[C@H](CCC(C)(C)O)[C@H]1CC[C@H]2[C@@H]3CC[C@H]4C[C@@](C)(O)CC[C@]4(C)[C@H]3CC[C@]12C | 87% and 70% | 278% and 238% |  |  | 
29 | C[C@H](CCC(C)(C)O)[C@H]1CC[C@H]2[C@@H]3CC[C@H]4C[C@](C)(O)CC[C@@H]4[C@H]3CC[C@]12C | 21% | 52% |  |  | 
30 | CNC(C)(C)CC[C@@H](C)[C@H]1CC[C@H]2[C@@H]3CC=C4C[C@@H](O)CC[C@]4(C)[C@H]3CC[C@]12C | 25% | 19% |  |  | 
31 | CC[C@]1(O)CC[C@@]2(C)C(=CC[C@H]3[C@@H]4CC[C@H]([C@H](C)CCC(C)(C)O)[C@@]4(C)CC[C@@H]32)C1 | 181% | 286% |  |  | 
